In ChEMBL document CHEMBL1157633, “Prediction and evaluation of protein farnesyltransferase inhibition by commercial drugs” (J Med Chem, 2010):
The source made the active and inactive calls. The calls are words filed in the database; no cut-off is given here.

Legend:
[1] = Inhibition of protein farnesyltransferase by continuous fluorescence assay
[2] = Blockade of protein farnesyltransferase by aggregate-based inhibition assay
MDCK [3] = experiment: Inhibition of protein farnesyltransferase-mediated farnesylation of GFP-tagged H-Ras protein overexpressed in MDCK cells assessed as inhibition of protein localization into golgi and plasma membrane at 25 uM after 24 hrs by Hoechst 34580 staining-based confocal microscopy; assay type: cell-based
MDCK [4] = experiment: Cytotoxicity against MDCK cells at >10 uM; assay type: cell-based, Canis lupus familiaris; conditions: dog
MDCK [5] = experiment: Inhibition of protein farnesyltransferase-mediated farnesylation of GFP-tagged H-Ras protein overexpressed in MDCK cells assessed as inhibition of protein localization into golgi and plasma membrane at 10 uM after 48 hrs by Hoechst 34580 staining-based confocal microscopy; assay type: cell-based
[6] = Blockade of protein farnesyltransferase at 100 uM by aggregate-based inhibition assay

Structure (SMILES) | IC50 [1] [µM] | Activity [2] | also measured
Cc1cncc(CN2CCC(=C3c4ccc(Cl)cc4CCc4cccnc43)CC2)c1 [RUPATADINE] | 76 | – | –
O=C1OC(c2ccc(O)cc2)(c2ccc(O)cc2)c2c(I)c(I)c(I)c(I)c21 | – | inactive | –
CC(C)C[C@H](NC(=O)[C@@H](O)[C@H](N)Cc1ccccc1)C(=O)O [UBENIMEX] | > 200 | – | –
CCOC(=O)N1CCC(=C2c3ccc(Cl)cc3CCc3cccnc32)CC1 [LORATADINE] | 13.3 | – | Activity (MDCK [3]): inactive
Clc1ccc(COC(Cn2ccnc2)c2ccc(Cl)cc2Cl)c(Cl)c1 (stereo not given) [MICONAZOLE] | – | Active | Activity (MDCK [4]): Toxic; Activity (MDCK [5]): Active
Clc1ccccc1C(c1ccccc1)(c1ccccc1)n1ccnc1 | – | – | Activity [6]: inactive
Clc1ccc(COC(Cn2ccnc2)c2ccc(Cl)cc2Cl)cc1 (stereo not given) | – | Active | –
